Test results reported in patent US9718781B2, “Methods and compounds for treating proliferative disorders and viral infections” (University College Dublin, National University of Ireland, …, priority 2012, dated 2017).
Read-outs that look alike come from different tables or passages of the source.

Experiments:
[1] = system: platelets in whole blood; assay: U46619-mediated platelet aggregation in whole blood (Sysmex haematological analyzer); format: cell-based, human; details: antagonist 0.1 μM, 1 μM U46619
Method: From an efficacy point of view, this is an important assay and, physiologically, relevant with respect to the therapeutic target.
Initially, the Sysmex haematological analyzer was used to examine the effect of the TP antagonists at a single concentration (0.1 μM) on U46619 (1 μM)-mediated platelet aggregation in whole blood.
FIG. 3 illustrates effects of the TP antagonist compounds on U46619-mediated platelet aggregation. Blood was taken form healthy volunteer by venupuncture into syringes containing 3.8% sodium citrate, 10 μM Indomethacin, such that the ratio of anticoagulant:blood was 1:9. The blood was aliquoted and incubated for 10 min with TP20 and selected NTP compounds, as indicated, where the antagonist were used at 0.1 μM prior to stimulation with 1 μM U46619 for 3 min. The blood was fixed with formaldehyde and platelet numbers counted using the Sysmex haematological analyzer. Data is presented as the mean percentage of control or non-treated blood sample (Percentage of Control; %) and represent data from 3 independent experiments were samples were treated in duplicate.

[2] = system: human platelets; assay: U46619-induced human platelet aggregation ex vivo (platelet rich plasma); format: cell-based
Source text: A modification of the turbidimetric method originally developed by Born & Cross (Born, G. V. and Cross, M. J., The Aggregation of Blood Platelets, J Physiol, 1963, 168:178-95) is used. The principle is based on the diffraction of the light by particles. When a light beam passes through a suspension of particles, it is diffracted, depending on the number and the size of the particles in suspension.
In the Born & Cross method, a light beam passes through a platelet suspension and the quantity of light is measured by a detector placed after the sample. Upon platelet aggregation, the size of platelet aggregates will increase while the total number of free platelets will decrease. Consequently, less light will be diffracted and the detector will record an increase in light intensity. The aggregometer has been developed based on these concepts. Variations in light transmission recorded by this device reflects the platelet physiology. When an agonist of platelet aggregation is added to a platelet suspension, platelets undergo activation and shape change. This step is characterized by an increase in platelet's apparent volume and thus a decrease of transmitted light. Subsequent platelet aggregation gradually forms aggregates of increasing size. Transmitted light slightly increases until a plateau is reached. The aggregation of platelet can be confirmed after the experiment by visual direct inspection of the test tube.
Preparation of platelet suspension is achieved by blood centrifugation at 160 g for 10 minutes. The PRP is re-centrifuged at 160 g for 10 min to remove contaminating red and white blood cells. The supernatant which is collected contains the platelets rich plasma (PRP). The remaining blood is subsequently centrifuged at 900 g for 15 min in order to retrieve plasma (platelets poor plasma, PPP). PRP is diluted with PPP to reach a final concentration of 150×10^3 […] PRP is kept warmed at 37° C. in the aggregometer and the adequate dilution of drug to test is introduced in the sample. Platelet aggregation is induced after 10 minutes incubation. Light transmission (T) is measured throughout the experiment, which is ended 8 minutes after induction of aggregation. Maximal light transmission (Tmax) is determined in the sample without drugs. Minimal light transmission (Tmin) is measured in PRP without inducer.
The effect of NTP4 and the previously identified lead TP antagonist, TP20, on U46619-mediated platelet aggregation in side-by-side comparisons was performed in platelet rich plasma (PRP) using the PAP-8E platelet aggregometer.
FIG. 4A-4C show the effect of TP20 & NTP4 on U46619-mediated platelet aggregation. PRP was prepared from blood taken from healthy volunteers into syringes containing 3.8% sodium citrate and 10 μM indomethacin such that the final ratio of anticoagulant to blood was 1:9. Aliquots of PRP (300 μl) were pre-incubated for 10 min with the TP antagonists, TP20 and NTP4, where 2-fold serial dilutions from 1 μM were prepared for each, prior to stimulating platelets with 1 μM U46619, incubated at 37° C., with stirring. FIG. 4A and FIG. 4B: Representative dose-response platelet aggregation profiles for TP20 (FIG. 4A) and NTP4 (FIG. 4B), where data is presented as Percentage Aggregation, as determined by changes in light transmission using the PAP-8E Platelet Aggregation Profiler as a function of time. FIG. 4C: The dose-response curves for platelet aggregation are presented as the mean (±S.E.M.) maximum Percentage Aggregation as a function of the log of the TP antagonist concentration. Data presented is representative of ≧6 independent experiments.

[3] = PRP, PAP-8E aggregometer, 1 μM U46619, side-by-side, read-out: IC50 Value for Inhibition of U46619-Mediated Platelet Aggregation (Mean ± S.E.M.)

Row | SMILES | inhibition of U46619-mediated reduction in platelet number [1] | IC50 ([2]; Homo sapiens, Platelet, PRP, PAP-8E aggregometer, 1 μM U46619, side-by-side, read-out: IC50 Value for Inhibition of U46619-Mediated Platelet Aggregation (Mean ± S.E.M.)) | IC50 [2, 3] | IC50 ([2]; Homo sapiens, Platelet, human platelets ex vivo, Table 3, read-out: IC50 data for inhibition of U46619-induced platelet aggregation)
1 | COc1ccc(-c2cccc(Oc3ccc(C#N)cc3S(=O)(=O)NC(=O)NC(C)(C)C)c2)cc1 [NTP4, N-(tert-butylcarbamoyl)-5-cyano-2-((4′-methoxy-[1,1′-biphenyl]-3-yl)oxy)benzenesulfonamide] | approx. 50% | 41.5 ± 7.69 nM | 40.3 ± 7.08 nM | –
2 | COc1ccc(-c2cccc(Oc3ccc([N+](=O)[O-])cc3S(=O)(=O)NC(=O)NC(C)(C)C)c2)cc1 [TP20, N-(tert-butylcarbamoyl)-2-((4′-methoxy-[1,1′-biphenyl]-3-yl)oxy)-5-nitrobenzene-sulfonamide] | almost completely inhibited | – | 4.62 ± 0.72 nM | 4.71 nM
